In the supplement of paper PMC11208160:

Assay: recombinant UMI read abundance after kanamycin selection (control-corrected) (log10(CPM+1)); higher = more efficient recombination; extreme values may be limits of the assay; sequences stand for … in AGTGCAGAGAAAATCGGCCAGTTTTCTCTGCCTGCAGTCCGCATGCCGTGGGACCCCTTGGGTTCTAACCTGTTGCCTAGATTTATGCAGCGGACTGCCTTTCTCCCAAAGTGATAAACCGG…AGGTTGGTTTCACT; site = the 11-nt donor
Experimental: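 Pooled E. coli donor-specificity screen for the IS621 bridge recombinase. Each library member carries a reprogrammed 11-nt donor and a full-length LE bridge RNA expressed in cis from the natural promoter, with a paired donor-binding loop (8-nt LDG + 4-nt RDG) and a target-binding loop fixed to T5. It is co-electroporated with a T5 target plasmid; recombinase is induced with 0.07 mM IPTG and recombinants are selected on kanamycin. UMIs are counted as CPM, averaged over two biological replicates and corrected by the unselected control. Molecule = full bridge RNA written as DNA, built from the T5 scaffold: LDG = donor specificity nt 1-8, RDG = reverse complement of nt 8-11.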
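Also: IS621 bridge recombinase in Escherichia coli cells against a fixed T5 target plasmid.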

First: AGGAAGTCATGGACCGGTTTTCCCGGTAATCCGTATTTGCA (site AGGAAGCCTTG)
Second: AGGAAGTCATGGACCGGTTTTCCCGGTAATCCGTATTTGCA (site AGGAAGGCTTG)
The “recombinant UMI read abundance (log10)” value of the first is higher: 0.641 for the first, 0 for the second.

“AGGAAGTCATGGACCGGTTTTCCCGGTAATCCGTATTTGCA (site AGGAAGTCTTG)” and “AGGAAGTCATGGACCGGTTTTCCCGGTAATCCGTATTTGTC (site AGGAAGTCTGA)” are within 0.2 log units of each other in “recombinant UMI read abundance (log10)” value: 3.29 for the first, 3.14 for the second.

First: AGGAATTCATGGACCGGTTTTCCCGGTAATCCGTATTTGTT (site AGGAATTCTAA)
Second: AGGAATTCATGGACCGGTTTTCCCGGTAATCCGTATTTGTT (site CGGAATCCTAA)
The “recombinant UMI read abundance (log10)” value of the first is higher: 2.16 for the first, 0 for the second.

Compared with “AGGACGACATGGACCGGTTTTCCCGGTAATCCGTATTTGCA (site AGGAAGACTTG)”, “AGGACGACATGGACCGGTTTTCCCGGTAATCCGTATTTGCA (site AGGACGACTTG)” is higher in “recombinant UMI read abundance (log10)” value: 0.601 for the first, 2.51 for the second.

Compared with “AGGACGACATGGACCGGTTTTCCCGGTAATCCGTATTTGCA (site AGGAGGACTTG)”, “AGGACGACATGGACCGGTTTTCCCGGTAATCCGTATTTGCA (site AGGATGACTTG)” is lower in “recombinant UMI read abundance (log10)” value: 1.38 for the first, 0.853 for the second.

Going from “AGGACGACATGGACCGGTTTTCCCGGTAATCCGTATTTGGA (site AGGAAGACTTG)” to “AGGACGACATGGACCGGTTTTCCCGGTAATCCGTATTTGGA (site AGGACGACTTC)”, the “recombinant UMI read abundance (log10)” value rises from 0 to 0.813.

Compared with “AGGACTACATGGACCGGTTTTCCCGGTAATCCGTATTTGGC (site AGGACTACTGA)”, “AGGACTACATGGACCGGTTTTCCCGGTAATCCGTATTTGGC (site AGGACTACTGC)” is higher in “recombinant UMI read abundance (log10)” value: 0 for the first, 2.95 for the second.

Going from “AGGACTACATGGACCGGTTTTCCCGGTAATCCGTATTTGGC (site AGGACTACTGG)” to “AGGACTACATGGACCGGTTTTCCCGGTAATCCGTATTTGGC (site AGGACTACTGT)”, the “recombinant UMI read abundance (log10)” value rises from 0 to 1.61.

Going from “AGGACTTCATGGACCGGTTTTCCCGGTAATCCGTATTTGAC (site AGGACTACTGT)” to “AGGACTTCATGGACCGGTTTTCCCGGTAATCCGTATTTGAC (site AGGACTCCTGT)”, the “recombinant UMI read abundance (log10)” value rises from 0 to 0.509.

Going from “AGGACTTCATGGACCGGTTTTCCCGGTAATCCGTATTTGAC (site AGGACTGCTGT)” to “AGGACTTCATGGACCGGTTTTCCCGGTAATCCGTATTTGAC (site AGGACTTCTGT)”, the “recombinant UMI read abundance (log10)” value rises from 0 to 2.76.

First: AGGAGGACATGGACCGGTTTTCCCGGTAATCCGTATTTGAA (site AGGAAGACTTG)
Second: AGGAGGACATGGACCGGTTTTCCCGGTAATCCGTATTTGAA (site AGGAGGACTTT)
The “recombinant UMI read abundance (log10)” value of the first is lower: 0 for the first, 2.19 for the second.

Compared with “AGGAGGACATGGACCGGTTTTCCCGGTAATCCGTATTTGCC (site AGGAAGACTTG)”, “AGGAGGACATGGACCGGTTTTCCCGGTAATCCGTATTTGCC (site AGGAGGACTGG)” is higher in “recombinant UMI read abundance (log10)” value: 0 for the first, 1.68 for the second.

Going from “AGGATGACATGGACCGGTTTTCCCGGTAATCCGTATTTGCG (site AGGAAGACTTG)” to “AGGATGACATGGACCGGTTTTCCCGGTAATCCGTATTTGCG (site AGGATGACTCG)”, the “recombinant UMI read abundance (log10)” value rises from 0 to 2.3.

“AGGCACGCATGGACCGGTTTTCCCGGTAATCCGTATTTGGG (site AAGCACGCTCC)” and “AGGCACGCATGGACCGGTTTTCCCGGTAATCCGTATTTGGG (site ACGCACGCTCC)” are within 0.2 log units of each other in “recombinant UMI read abundance (log10)” value: 0.371 for the first, 0.183 for the second.

Compared with “AGGCACGCATGGACCGGTTTTCCCGGTAATCCGTATTTGGG (site AGGCACGCTCC)”, “AGGCACGCATGGACCGGTTTTCCCGGTAATCCGTATTTGGG (site ATGCACGCTCC)” is lower in “recombinant UMI read abundance (log10)” value: 1.76 for the first, 0.0107 for the second.

Going from “AGGCACTCATGGACCGGTTTTCCCGGTAATCCGTATTTGCA (site AGGCACTCTTG)” to “AGGCGAGCATGGACCGGTTTTCCCGGTAATCCGTATTTGCG (site AGGCGAGCTCG)”, the “recombinant UMI read abundance (log10)” value falls from 2.66 to 2.02.
